According to patent US4515806A, “Furan derivatives and addition salts thereof pharmaceutical compositions and the therapeutical applications thereof” (priority 1982, dated 1985):
Like-named read-outs stand apart in the source and are kept apart here.

How the values were obtained:
histamine H2 receptors = target: T1, histamine H2 receptors (Rattus norvegicus, UniProt P25102); conditions: for EC50: read-out: effective concentration for producing a 50% antagonism of the histamine response (EC50); for inhibition at 0.0434 µM / inhibition at 0.434 µM / inhibition at 4.34 µM / inhibition at 43.4 µM: rat, read-out: Antagonism (% reduction) of the histamine induced response in KCl contracted rat uterus
T1 construct: the uterine horn was removed and suspended in a De Jalon solution in an organ bath; from tissue; host or cells: rat uterine horn (rats in estrus, stilbestrol-treated)
Method: Rats in estrus were used and were administered 100 mcg of stilbestrol by intramuscular (i.m.) injection 30 hours before removing the uterus. On the day of the experiment, the uterine horn was removed and suspended in a De Jalon solution in an organ bath, held at 28° C. and aerated with a flow of 95% O2 and 5% CO2. Thereafter a sustained uterine contraction was induced by the addition of a KCl solution to provide a concentration in the organ bath of 4.2 mg/ml, namely, 10 times that of the De Jalon serum. The uterus was caused to relax with the addition of the amount of histamine required to obtain a good response.

Solubility (in words) = assay type: physicochemical
gastric juices [1] = experiment: Ligature of pylorus, intraduodenal treatment (Table B-2); assay type: in vivo, Male Wistar rats
Method: (§1) The method of […] et al. (J. Pharmac. Exp. […] Male Wistar rats, weighing from 250 to 300 grams were used. […] The rats were anesthetised with ethyl ether, a laparotomy was performed and the pylorus was ligatured. The abdominal incision was then sewn. Treatment was effected: (B-1) intravenously, through the femoral vein. (B-2) intraduodenally, prior to sewing the abdominal incision. Three hours after ligature of the pylorus, the volumen of gastric juices was measured, the pH was determined by a Beckman Century SS-1 pH-meter.

gastric juices [2] = experiment: Ligature of pylorus, intravenous treatment (Table B-1); assay type: in vivo, Male Wistar rats; conditions: for Volume of gastric juice, percentage decrease relative to control / pH of gastric juice, percentage increase relative to control / Total acidity (titration with 0,1N NaOH), percentage decrease relative to control: 10 mg/kg i.v., 3 h after ligature
Method: as §1

rats = experiment: Acute toxicity in rats
in vivo = conditions: mouse, iv
[3] = 1 mg/kg intraduodenal, lot of 4 rats
[4] = 3 mg/kg intraduodenal, 4 or 5 rats
[5] = 10 mg/kg intraduodenal, first lot (4 or 5 rats)
[6] = 10 mg/kg intraduodenal, lot of 8 rats
[7] = 10 mg/kg intraduodenal, second lot (4 or 5 rats)
[8] = 1 mg/kg intraduodenal, lot of 5 rats

T1 sequence (P25102 whole entry): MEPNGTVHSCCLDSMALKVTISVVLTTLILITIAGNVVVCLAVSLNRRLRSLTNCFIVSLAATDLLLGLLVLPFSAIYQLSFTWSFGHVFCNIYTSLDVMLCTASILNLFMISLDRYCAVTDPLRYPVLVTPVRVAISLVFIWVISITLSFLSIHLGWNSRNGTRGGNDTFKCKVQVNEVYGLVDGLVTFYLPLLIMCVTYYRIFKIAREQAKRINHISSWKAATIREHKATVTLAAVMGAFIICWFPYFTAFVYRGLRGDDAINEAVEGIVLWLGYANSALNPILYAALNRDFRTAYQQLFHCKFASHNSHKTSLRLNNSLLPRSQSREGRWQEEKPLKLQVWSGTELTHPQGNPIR

| Structure (SMILES) | solubility (Solubility (in words); methanol) | solubility (Solubility (in words); water) | Total acidity (titration with 0,1N NaOH), percentage decrease relative to control (gastric juices [1]; [3]) [%] | Volume of gastric juice, percentage decrease relative to control (gastric juices [1]; [3]) [%] | pH of gastric juice, percentage increase relative to control (gastric juices [1]; [3]) [%] | Total acidity (titration with 0,1N NaOH), percentage decrease relative to control (gastric juices [1]; [4]) [%] | Volume of gastric juice, percentage decrease relative to control (gastric juices [1]; [4]) [%] | pH of gastric juice, percentage increase relative to control (gastric juices [1]; [4]) [%] | Total acidity (titration with 0,1N NaOH), percentage decrease relative to control (gastric juices [1]; [5]) [%] | Volume of gastric juice, percentage decrease relative to control (gastric juices [1]; [5]) [%] | pH of gastric juice, percentage increase relative to control (gastric juices [1]; [5]) [%] | Total acidity (titration with 0,1N NaOH), percentage decrease relative to control (gastric juices [1]; [6]) [%] | Volume of gastric juice, percentage decrease relative to control (gastric juices [1]; [6]) [%] | pH of gastric juice, percentage increase relative to control (gastric juices [1]; [6]) [%] | Total acidity (titration with 0,1N NaOH), percentage decrease relative to control (gastric juices [1]; [7]) [%] | Volume of gastric juice, percentage decrease relative to control (gastric juices [1]; [7]) [%] | pH of gastric juice, percentage increase relative to control (gastric juices [1]; [7]) [%] | Total acidity (titration with 0,1N NaOH), percentage decrease relative to control (gastric juices [1]; 25 mg/kg intraduodenal, 5 rats) [%] | Volume of gastric juice, percentage decrease relative to control (gastric juices [1]; 25 mg/kg intraduodenal, 5 rats) [%] | pH of gastric juice, percentage increase relative to control (gastric juices [1]; 25 mg/kg intraduodenal, 5 rats) [%] | other results |
| --- | --- | --- | --- | --- | --- | --- | --- | --- | --- | --- | --- | --- | --- | --- | --- | --- | --- | --- | --- | --- | --- |
| NCCc1c[nH]cn1 [histamine] |  |  |  |  |  |  |  |  |  |  |  |  |  |  |  |  |  |  |  |  | inhibition at 54.3 µM (histamine H2 receptors; read-out: inhibition of the contraction caused by KCl): 74.5% |
| CN(C)Cc1ccc(CSCCNC(=C[N+](=O)[O-])NCCO)o1 [Example 1, (a), N-[2-[[(5-[(dimethylamino)methyl]-2-furanyl)methyl]thio]ethyl]-N'-(2-hydroxyethyl)-2-nitro-1,1-ethenediamine] | soluble |  |  |  |  |  |  |  |  |  |  |  |  |  |  |  |  |  |  |  | solubility (Solubility (in words); chloroform): soluble |
| O=[N+]([O-])C=C(NCCO)NCCO [Example 2, N,N'-bis(2-hydroxyethyl)-2-nitro-1,1-ethenediamine] | slightly soluble | soluble |  |  |  |  |  |  |  |  |  |  |  |  |  |  |  |  |  |  | solubility (Solubility (in words); ethanol): slightly soluble |
| CN/C(=N/CCSCc1nc[nH]c1C)NC#N [Cimetidine, cimetidine] |  |  | 48 | 14 | 46 | 48 | 23 | 29 | 84 | 28 | 50 | 40 | 6.6 | 100 | 82 | 51 | 178 | 51.5 | 35.4 | 110 | Volume of gastric juice, percentage decrease relative to control (gastric juices [2]; first lot (2 or 3 rats)): 41.0%; pH of gastric juice, percentage increase relative to control (gastric juices [2]; first lot (2 or 3 rats)): 50.4%; Total acidity (titration with 0,1N NaOH), percentage decrease relative to control (gastric juices [2]; lot of 5 rats): 11.7%; Volume of gastric juice, percentage decrease relative to control (gastric juices [2]; lot of 5 rats): 23.2%; Total acidity (titration with 0,1N NaOH), percentage decrease relative to control (gastric juices [2]; lot of 8 rats): 52.7%; Volume of gastric juice, percentage decrease relative to control (gastric juices [2]; lot of 8 rats): 7.3%; pH of gastric juice, percentage increase relative to control (gastric juices [2]; lot of 8 rats): 64.9% |
| CNC(=C[N+](=O)[O-])NCCSCc1ccc(CN(C)C)o1 [Ranitidine, ranitidine] |  |  | 38 | 46.2 | 17 | 47 | 5 | 46 | 66 | 30 | 95 | 50 | 12 | 97.4 | 75 | 58 | 202 | 83 | 55 | 210 | Total acidity (titration with 0,1N NaOH), percentage decrease relative to control (gastric juices [1]; [8]): 18%; Volume of gastric juice, percentage increase relative to control (gastric juices [1]; [8]): 6%; pH of gastric juice, percentage increase relative to control (gastric juices [1]; [8]): 60%; Volume of gastric juice, percentage decrease relative to control (gastric juices [2]; first lot (2 or 3 rats)): 68.1%; pH of gastric juice, percentage increase relative to control (gastric juices [2]; first lot (2 or 3 rats)): 200.8%; Total acidity (titration with 0,1N NaOH), percentage decrease relative to control (gastric juices [2]; lot of 5 rats): 81.8%; Volume of gastric juice, percentage decrease relative to control (gastric juices [2]; lot of 5 rats): 61.4%; pH of gastric juice, percentage increase relative to control (gastric juices [2]; lot of 5 rats): 88.5%; Total acidity (titration with 0,1N NaOH), percentage decrease relative to control (gastric juices [2]; lot of 8 rats): 72.7%; Volume of gastric juice, percentage decrease relative to control (gastric juices [2]; lot of 8 rats): 21%; pH of gastric juice, percentage increase relative to control (gastric juices [2]; lot of 8 rats): 104.2%; EC50 (histamine H2 receptors; rat uterus, KCl contracted): 8.25 µM; inhibition at 0.0434 µM (histamine H2 receptors): 0%; inhibition at 0.434 µM (histamine H2 receptors): 20%; inhibition at 4.34 µM (histamine H2 receptors): 42.2%; inhibition at 43.4 µM (histamine H2 receptors): 73.8% |
| CN(C)Cc1ccc(CSCCNC(=C[N+](=O)[O-])NCCO)o1.Cl [Example 1, (b), N-[2-[[(5-[(dimethylamino)methyl]-2-furanyl)methyl]thio]ethyl]-N'-(2-hydroxyethyl)-2-nitro-1,1-ethenediamine hydrochloride] | soluble | soluble |  |  |  |  |  |  |  |  |  |  |  |  |  |  |  |  |  |  | activity (reduction in volume, increase in pH of gastric juice) (gastric juices [1]; intraduodenal): very high; activity compared with cimetidine (gastric juices [1]; intraduodenal): more active than cimetidine; activity compared with ranitidine (gastric juices [1]; intraduodenal): practically the same activity; acute toxicity (mice): low; activity (reduction in volume, increase in pH of gastric juice) (gastric juices [2]; intravenous): very high; activity compared with cimetidine (gastric juices [2]; intravenous): more active than cimetidine; activity compared with ranitidine (gastric juices [2]; intravenous): rather higher; activity compared with ranitidine (histamine H2 receptors; rat uterus H2 receptors): more active than ranitidine; inhibition at 0.0434 µM (histamine H2 receptors): 0%; inhibition at 0.434 µM (histamine H2 receptors): 22.2%; inhibition at 4.34 µM (histamine H2 receptors): 47.3%; inhibition at 43.4 µM (histamine H2 receptors): 81.8%; EC50 (histamine H2 receptors): 5.5 µM; acute toxicity (rats): low; LD50 (in vivo): 200 mg/kg |
